From patent publication US10947205B2, “Oxazolidinone compounds and methods of use thereof as antibacterial agents” (priority 2015, dated 2021)
Converted amounts (≈) assume the structure as drawn. Where two headings read alike, the source gives them in different places.

Key:
[1] = system: mitochondrial protein synthesis in HepG2 cells (COX-I / SDH-A); test: Mitochondrial protein synthesis assay; format: cell-based; conditions: Homo sapiens, 96 h; HepG2 cells, 4 days, ratio of COX-1 to SDH-A levels; read-out: MPS IC50_μM
Method: (§1) Inhibition of mitochondrial protein synthesis was assessed in HepG2 cells by comparing the levels of two subunits of oxidative phosphorylation enzyme complexes, subunit I of Complex IV (COX-I) and the 70 kDa subunit of Complex II (SDH-A). COX-I is mitochondrial DNA encoded and SDH-A is nuclear DNA encoded. HepG2 cells were seeded in 96-well collagen coated plates at 8,000 cells per well and exposed to 2-fold serial dilutions of compounds from 100 LM to 6.25 μM. Microtiter plates were incubated for approximately 5 replication cycles (4 days) prior to assessment of protein levels using a kit as described by the manufacturer (ab 110217 MitoBiogenesis In Cell ELISA Kit, Abcam, Cambridge, Mass.). Inhibition of mitochondrial protein synthesis was expressed as a ratio of COX-1 to SDH-A levels.
as §1, with “μM” for “LM”

[2] = system: Staphylococcus aureus (methicillin resistant, MB5393, COL); test: microbe, parasite or virus in culture; format: cell-based; conditions: MRSA, 22 h, read-out: MRSA COL MITC95 μM
Method: Inhibition of Staphylococcus aureus (methicillin resistant, MB5393, COL) growth was assessed in cation adjusted Mueller Hinton II broth (CAMHB) in 384-well microtiter plates. Bacteria were dispensed into microtiter plates at approximately 5×10^5 actively growing cells in 49 μL volumes per well. Cells were exposed to 2-fold serial dilutions of compounds from 200 μM to 0.195 μM and growth compared to drug-free control. Compound dilutions were prepared in 100% dimethylsulfoxide and added to microtiter plates in 1 μL volumes per well. Full growth control wells contained dimethylsufoxide and bacteria. No growth control wells contained dimethysulfoxide and CAMHB but no bacteria. Growth inhibition was assessed after a 22-hour growth period by measuring optical density using a spectrophotometer. The lowest concentration of test compound required to inhibit 95% of the growth of the bacteria was defined as the MITC95. All studies were done in a BSL2 facility.

[3] = system: Mycobacterium tuberculosis (Mtb); test: microbe, parasite or virus in culture; format: cell-based, Mycobacterium tuberculosis H37Rv (Mtb-GFP); conditions: 168 h
[4] = pH 6.8, read-out: Mtb Cho MITC95_μM
[5] = pH 6.8, read-out: Mtb Glu MITC95_μM

In the case of `CSc1ccc(-c2ccc(N3C[C@H](CN)OC3=O)cc2F)cc1` [Example 1, (S)-5-(aminomethyl)-3-(2-fluoro-4′-(methylthio)-[1,1′-biphenyl]-4-yl)oxazolidin-2-one], the IC50 [1] is reported as 12.2 µM, the MIC [2] is reported as 25 µM (≈ 8.31 µg/mL) and the MIC [3, 4] is reported as 0.03 µM (≈ 0.00997 µg/mL). For the same molecule, the MIC [3, 5] was 0.04 µM (≈ 0.0133 µg/mL).
For `NC[C@H]1CN(c2ccc(-c3ccc(C(N)=O)cc3)c(F)c2)C(=O)O1` [Example 2, 4′-[(5S)-5-(aminomethyl)-2-oxo-1,3-oxazolidin-3-yl]-2′-fluorobiphenyl-4-carboxamide], the IC50 [1] was > 25 µM, the MIC [2] was 200 µM (≈ 65.9 µg/mL) and the MIC [3, 4] was 0.03 µM (≈ 0.00988 µg/mL). It also gave an MIC [3, 5] of 0.02 µM (≈ 0.00659 µg/mL).
`NC[C@H]1CN(c2ccc(-c3cccc([N+](=O)[O-])c3)c(F)c2)C(=O)O1` [Example 20, (5S)-5-(aminomethyl)-3-(2-fluoro-3′-nitrobiphenyl-4-yl)-1,3-oxazolidin-2-one] was tested, and the IC50 [1] was > 20 µM, the MIC [2] was 200 µM (≈ 66.3 µg/mL) and the MIC [3, 4] was 0.58 µM (≈ 0.192 µg/mL). The MIC [3, 5] was 0.14 µM (≈ 0.0464 µg/mL).
`CCOC(=O)NC[C@H]1CN(c2ccc(-c3ccc(SC)cc3)c(F)c2)C(=O)O1` [Example 63, ethyl ({(5S)-3-[2-fluoro-4′-(methylsulfanyl)biphenyl-4-yl]-2-oxo-1,3-oxazolidin-5-yl}methyl)carbamate] was tested, and the IC50 [1] was 18 µM, the MIC [2] was 200 µM (≈ 80.9 µg/mL) and the MIC [3, 4] was 0.19 µM (≈ 0.0768 µg/mL). It also gave an MIC [3, 5] of 0.29 µM (≈ 0.117 µg/mL).
`CSc1ccc(-c2ccc(N3C[C@H](Cn4occc4=O)OC3=O)cc2F)cc1` [Example 50, (R)-2-((3-(2-fluoro-4′-(methylthio)-[1,1′-biphenyl]-4-yl)-2-oxooxazolidin-5-yl)methyl)isoxazol-3(2H)-one] was tested, and the IC50 [1] was > 20 µM, the MIC [2] was 200 µM (≈ 80.1 µg/mL) and the MIC [3, 4] was 0.58 µM (≈ 0.232 µg/mL). It also gave an MIC [3, 5] of 0.29 µM (≈ 0.116 µg/mL).
In the case of `NC[C@H]1CN(c2ccc(-c3cncc4[nH]ccc34)c(F)c2)C(=O)O1` [Example 35, (5S)-5-(aminomethyl)-3-[3-fluoro-4-(1H-pyrrolo[2,3-c]pyridin-4-yl)phenyl]-1,3-oxazolidin-2-one], the MIC [2] is reported as 200 µM (≈ 65.3 µg/mL), the MIC [3, 4] is reported as 0.58 µM (≈ 0.189 µg/mL) and the MIC [3, 5] is reported as 1.14 µM (≈ 0.372 µg/mL).
For `NC[C@H]1CN(c2ccc(-c3ccnc(Cl)c3)c(F)c2)C(=O)O1` [Example 30, (5S)-5-(aminomethyl)-3-[4-(2-chloropyridin-4-yl)-3-fluorophenyl]-1,3-oxazolidin-2-one], the IC50 [1] was > 20 µM, the MIC [2] was 200 µM (≈ 64.3 µg/mL) and the MIC [3, 4] was 0.39 µM (≈ 0.125 µg/mL). For the same molecule, the MIC [3, 5] was 0.09 µM (≈ 0.029 µg/mL).
For `NC[C@H]1CN(c2ccc(-c3ccc(Cl)nc3)c(F)c2)C(=O)O1` [Example 22, (5S)-5-(aminomethyl)-3-[4-(6-chloropyridin-3-yl)-3-fluorophenyl]-1,3-oxazolidin-2-one], the IC50 [1] was > 20 µM, the MIC [2] was 100 µM (≈ 32.2 µg/mL) and the MIC [3, 4] was 0.19 µM (≈ 0.0611 µg/mL). It also gave an MIC [3, 5] of 0.04 µM (≈ 0.0129 µg/mL).
`CC(=O)NC[C@H]1CN(c2ccc(N3CCOCC3)c(F)c2)C(=O)O1` [linezolid, reference compound] gave an IC50 [1] of 8 µM, an MIC [2] of 6.25 µM (≈ 2.11 µg/mL) and an MIC [3, 4] of 3.14 µM (≈ 1.06 µg/mL). It also gave an MIC [3, 5] of 4.58 µM (≈ 1.55 µg/mL).
In the case of `CC(C)(C)OC(=O)N1CC=C(c2ccc(N3C[C@H](CN)OC3=O)cc2F)CC1` [Example 26, tert-butyl 4-{4-[(5S)-5-(aminomethyl)-2-oxo-1,3-oxazolidin-3-yl]-2-fluorophenyl}-3,6-dihydropyridin-1(2H)-carboxylate], the IC50 [1] is reported as > 20 µM, the MIC [2] is reported as 200 µM (≈ 78.3 µg/mL) and the MIC [3, 4] is reported as 1.5 µM (≈ 0.587 µg/mL). The MIC [3, 5] was 0.78 µM (≈ 0.305 µg/mL).
With `NC[C@H]1CN(c2ccc(-c3ccc(F)nc3)c(F)c2)C(=O)O1` [Example 19, (5S)-5-(aminomethyl)-3-[3-fluoro-4-(6-fluoropyridin-3-yl)phenyl]-1,3-oxazolidin-2-one] the IC50 [1] was > 20 µM, the MIC [2] was 200 µM (≈ 61.1 µg/mL) and the MIC [3, 4] was 0.09 µM (≈ 0.0275 µg/mL). It also gave an MIC [3, 5] of 0.485 µM (≈ 0.148 µg/mL).
With `CSc1cccc(-c2ccc(N3C[C@H](CN)OC3=O)cc2F)c1` [Example 3, (5S)-5-(aminomethyl)-3-[2-fluoro-3′-(methylsulfanyl)biphenyl-4-yl]-1,3-oxazolidin-2-one] the IC50 [1] was > 20 µM, the MIC [2] was 100 µM (≈ 33.2 µg/mL) and the MIC [3, 4] was 0.78 µM (≈ 0.259 µg/mL). The MIC [3, 5] was 1.14 µM (≈ 0.379 µg/mL).
In the case of `NCc1ccc(F)c(-c2ccc(N3C[C@H](Cn4ccnn4)OC3=O)cc2F)c1` [Example 55, (5R)-3-[5′-(aminomethyl)-2,2′-difluorobiphenyl-4-yl]-5-(1H-1,2,3-triazol-1-ylmethyl)-1,3-oxazolidin-2-one], the IC50 [1] is reported as > 20 µM, the MIC [2] is reported as 50 µM (≈ 19.3 µg/mL) and the MIC [3, 4] is reported as 0.19 µM (≈ 0.0732 µg/mL). For the same molecule, the MIC [3, 5] was 0.19 µM (≈ 0.0732 µg/mL).
In the case of `NC[C@H]1CN(c2ccc(-c3ccc4cc[nH]c4c3)c(F)c2)C(=O)O1` [Example 27, (5S)-5-(aminomethyl)-3-[3-fluoro-4-(1H-indol-6-yl)phenyl]-1,3-oxazolidin-2-one], the IC50 [1] is reported as > 50 µM, the MIC [2] is reported as 200 µM (≈ 65.1 µg/mL) and the MIC [3, 4] is reported as 0.78 µM (≈ 0.254 µg/mL). It also gave an MIC [3, 5] of 0.39 µM (≈ 0.127 µg/mL).
With `NC[C@H]1CN(c2ccc(-c3ccc4ncnn4c3)c(F)c2)C(=O)O1` [Example 5, (5S)-5-(aminomethyl)-3-(3-fluoro-4-[1,2,4]triazolo[1,5-a]pyridin-6-ylphenyl)-1,3-oxazolidin-2-one] the IC50 [1] was > 20 µM, the MIC [2] was 200 µM (≈ 65.5 µg/mL) and the MIC [3, 4] was 0.09 µM (≈ 0.0295 µg/mL). For the same molecule, the MIC [3, 5] was 0.04 µM (≈ 0.0131 µg/mL).
With `NC[C@H]1CN(c2ccc(-c3cccc(N4CCS(=O)(=O)CC4)c3)c(F)c2)C(=O)O1` [Example 21, (5S)-5-(aminomethyl)-3-[3′-(1,1-dioxidothiomorpholin-4-yl)-2-fluorobiphenyl-4-yl]-1,3-oxazolidin-2-one] the IC50 [1] was 25 µM, the MIC [2] was 200 µM (≈ 83.9 µg/mL) and the MIC [3, 4] was 1.5 µM (≈ 0.629 µg/mL). It also gave an MIC [3, 5] of 0.39 µM (≈ 0.164 µg/mL).
`NC[C@H]1CN(c2ccc(-c3cncnc3)c(F)c2)C(=O)O1` [Example 25, (5S)-5-(aminomethyl)-3-(3-fluoro-4-pyrimidin-5-ylphenyl)-1,3-oxazolidin-2-one] was tested, and the IC50 [1] was > 20 µM, the MIC [2] was 200 µM (≈ 57.7 µg/mL) and the MIC [3, 4] was 0.19 µM (≈ 0.0548 µg/mL). For the same molecule, the MIC [3, 5] was 0.04 µM (≈ 0.0115 µg/mL).
With `CSc1ccc(-c2c(F)cc(N3C[C@H](CNC(C)=O)OC3=O)cc2F)cc1` [Example 47, (S)—N-((3-(2,6-difluoro-4′-(methylthio)-[1,1′-biphenyl]-4-yl)-2-oxooxazolidin-5-yl)methyl)acetamide] the IC50 [1] was > 20 µM, the MIC [2] was 0.781 µM (≈ 0.307 µg/mL) and the MIC [3, 4] was 0.01 µM (≈ 0.00392 µg/mL). It also gave an MIC [3, 5] of 0.03 µM (≈ 0.0118 µg/mL).
For `CSc1ccc(-c2ccc(N3CC(Cn4ccnc4)OC3=O)cc2F)cc1` (stereo in doubt) [Example 45, (5R)-3-[2-fluoro-4′-(methylsulfanyl)biphenyl-4-yl]-5-(1H-imidazol-1-ylmethyl)-1,3-oxazolidin-2-one], the MIC [2] was 200 µM (≈ 76.7 µg/mL), the MIC [3, 4] was 0.39 µM (≈ 0.15 µg/mL) and the MIC [3, 5] was 1.14 µM (≈ 0.437 µg/mL).
Molecule `NC[C@H]1CN(c2ccc(-c3cnn(C(F)F)c3)c(F)c2)C(=O)O1` [Example 36, (5S)-5-(aminomethyl)-3-{4-[1-(difluoromethyl)-1H-pyrazol-4-yl]-3-fluorophenyl}-1,3-oxazolidin-2-one] has an MIC [2] of 200 µM (≈ 65.3 µg/mL), an MIC [3, 4] of 0.48 µM (≈ 0.157 µg/mL) and an MIC [3, 5] of 1.5 µM (≈ 0.489 µg/mL).
For `NC[C@H]1CN(c2ccc(-c3ccsc3)c(F)c2)C(=O)O1` [Example 15, (5S)-5-(aminomethyl)-3-(3-fluoro-4-thiophen-3-ylphenyl)-1,3-oxazolidin-2-one], the MIC [2] was 200 µM (≈ 58.5 µg/mL), the MIC [3, 4] was 0.58 µM (≈ 0.17 µg/mL) and the MIC [3, 5] was 1.14 µM (≈ 0.333 µg/mL).
`NC[C@H]1CN(c2ccc(-c3ccc(O)cc3)c(F)c2)C(=O)O1` [Example 11, (5S)-5-(aminomethyl)-3-(2-fluoro-4′-hydroxybiphenyl-4-yl)-1,3-oxazolidin-2-one] gave an MIC [2] of 200 µM (≈ 60.5 µg/mL), an MIC [3, 4] of 0.14 µM (≈ 0.0423 µg/mL) and an MIC [3, 5] of 25.1 µM (≈ 7.59 µg/mL).
With `CN(C)S(=O)(=O)c1ccc(-c2ccc(N3C[C@H](CN)OC3=O)cc2F)cc1` [Example 14, 4′-[(5S)-5-(aminomethyl)-2-oxo-1,3-oxazolidin-3-yl]-2′-fluoro-N,N-dimethylbiphenyl-4-sulfonamide] the MIC [2] was 200 µM (≈ 78.7 µg/mL), the MIC [3, 4] was 1.14 µM (≈ 0.449 µg/mL) and the MIC [3, 5] was 0.78 µM (≈ 0.307 µg/mL).
In the case of `NC[C@H]1CN(c2ccc(-c3ccoc3)c(F)c2)C(=O)O1` [Example 12, (5S)-5-(aminomethyl)-3-(3-fluoro-4-furan-3-ylphenyl)-1,3-oxazolidin-2-one], the MIC [2] is reported as 200 µM (≈ 55.3 µg/mL), the MIC [3, 4] is reported as 1.14 µM (≈ 0.315 µg/mL) and the MIC [3, 5] is reported as 1.14 µM (≈ 0.315 µg/mL).
In the case of `CSc1ccc(-c2ccc(N3C[C@H](CNC(=O)NN(C)C)OC3=O)cc2F)cc1` [Example 60, (S)—N-((3-(2-fluoro-4′-(methylthio)-[1,1′-biphenyl]-4-yl)-2-oxooxazolidin-5-yl)methyl)-2,2-dimethylhydrazinecarboxamide], the MIC [2] is reported as 200 µM (≈ 83.7 µg/mL), the MIC [3, 4] is reported as 1.14 µM (≈ 0.477 µg/mL) and the MIC [3, 5] is reported as 2.3 µM (≈ 0.963 µg/mL).
